Reference: PubChem BioAssay (NCI)
Values joined by “and” are separate entries in the source; they are usually repeats but may differ in a detail not shown here. Equal entries are not always repeated.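 Step 1: Grow cells in 96-well plates. Step 2: Expose to compound for 48 hours at 5 concentrations. Step 3: Interpolate endpoints linearly; if unreached, use highest concentration. GI50 = concentration required for 50% inhibition of growth. Definition used: TGI = concentration required for complete inhibition of growth.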

Tests used:
Assay in all cases: DTP human tumour cell line panel, 48 h
[1] = system: RXF 393 renal
[2] = system: HOP-62 NSCLC
[3] = system: CCRF-CEM leukemia
[4] = system: SK-MEL-2 melanoma
[5] = system: SW-620 colon
[6] = system: HCT-15 colon
[7] = system: HL-60(TB) leukemia
[8] = system: TK-10 renal
[9] = system: MDA-MB-435
[10] = system: SN12C renal
[11] = system: NCI-H226 lung
[12] = system: SF-268 CNS
[13] = system: SF-539 CNS
[14] = system: MCF7 breast
[15] = system: ACHN renal
[16] = system: HOP-92 NSCLC
[17] = system: LOX IMVI melanoma
[18] = system: MDA-N
[19] = system: IGROV1 ovarian
[20] = system: NCI/ADR-RES ovarian
[21] = system: MALME-3M melanoma
[22] = system: SNB-19 CNS
[23] = system: RPMI-8226 leukemia
[24] = system: DU-145 prostate
[25] = system: A549 NSCLC
[26] = system: 786-0 renal
[27] = system: U251 CNS
[28] = system: K-562 leukemia
[29] = system: OVCAR-5 ovarian
[30] = system: SF-295 CNS
[31] = system: A498 renal
[32] = system: SK-MEL-5 melanoma
[33] = system: SK-OV-3 ovarian
[34] = system: SR leukemia
[35] = system: MDA-MB-231 breast
[36] = system: BT-549 breast
[37] = system: UO-31 renal
[38] = system: OVCAR-8 ovarian
[39] = system: M14 melanoma
[40] = system: OVCAR-4 ovarian
[41] = system: OVCAR-3 ovarian
[42] = system: PC-3 prostate
[43] = system: NCI-H460 lung
[44] = system: SNB-75 CNS
[45] = system: HCC-2998 colon
[46] = system: NCI-H23 lung
[47] = system: UACC-62 melanoma
[48] = system: HCT-116 colon
[49] = system: EKVX NSCLC
[50] = system: UACC-257 melanoma
[51] = system: CAKI-1 renal
[52] = system: KM12 colon
[53] = system: HS 578T breast
[54] = system: T-47D breast
[55] = system: SK-MEL-28 melanoma
[56] = system: NCI-H522 lung
[57] = system: MOLT-4 leukemia
[58] = system: HT29 colon
[59] = system: COLO 205 colon
[60] = system: DLD-1 colon
[61] = system: KM20L2 colon
[62] = system: DMS 114 small cell lung
[63] = system: HOP-18 NSCLC
[64] = system: DMS 273 small cell lung
[65] = system: SNB-78 CNS
[66] = system: M19-MEL melanoma

In the case of `Cc1[nH]c(=O)nc(N/N=C/c2ccc(Cl)c(Cl)c2)c1C(=O)Nc1ccc(Cl)c(Cl)c1`, the TGI [1] is reported as 32.7 µM, the TGI [2] is reported as 24.8 µM and the TGI [3] is reported as greater than 23 µM. It also gave a TGI [4] of 49.9 µM, a TGI [5] greater than 30 µM and a TGI [6] greater than 42.9 µM. The TGI [7] was greater than 78.2 µM, the TGI [8] was 28 µM and the TGI [9] was greater than 39.5 µM. It also gave a TGI [10] greater than 46.5 µM, a TGI [11] greater than 52.2 µM and a TGI [12] of 40.7 µM. The TGI [13] was 41.2 µM, the TGI [14] was 57 µM and the TGI [15] was greater than 53.1 µM. The TGI [16] was 39.3 µM, the TGI [17] was greater than 57 µM and the TGI [18] was 39.7 µM. It also gave a TGI [19] greater than 39.2 µM, a TGI [20] greater than 47.6 µM and a TGI [21] greater than 44.5 µM. It also gave a TGI [22] of 32 µM, a TGI [23] greater than 100 µM and a TGI [24] greater than 41.2 µM. The TGI [25] was 38.9 µM, the TGI [26] was greater than 39 µM and the TGI [27] was 18.5 µM. The TGI [28] was greater than 100 µM, the TGI [29] was greater than 46.3 µM and the TGI [30] was greater than 30.7 µM. For the same compound, the TGI [31] was 7.92 µM, the TGI [32] was 22.8 µM and the TGI [33] was 26.9 µM. It also gave a TGI [34] greater than 100 µM, a TGI [35] of 15.2 µM and a TGI [36] of 39.7 µM. For the same compound, the TGI [37] was greater than 56.2 µM, the TGI [38] was 14.8 µM and the TGI [39] was 15.7 µM. For the same compound, the TGI [40] was 11 µM, the TGI [41] was 24.5 µM and the TGI [42] was greater than 51.5 µM. The TGI [43] was greater than 49.6 µM, the TGI [44] was 35.3 µM and the TGI [45] was greater than 100 µM. It also gave a TGI [46] greater than 44.9 µM, a TGI [47] of 41.2 µM and a TGI [48] greater than 20.5 µM. The TGI [49] was greater than 100 µM, the TGI [50] was greater than 41 µM and the TGI [51] was 33.3 µM. The TGI [52] was greater than 22.2 µM, the TGI [53] was 27.2 µM and the TGI [54] was 72 µM. The TGI [55] was 23.4 µM, the TGI [56] was 44.7 µM and the TGI [57] was greater than 100 µM. The TGI [58] was greater than 46.5 µM and the TGI [59] was greater than 44.1 µM.
`CC(C)OP(=O)(OC(C)C)C(N(C)C)P(=O)(OC(C)C)OC(C)C.[Cl][Sn]([Cl])([Cl])[c]1ccccc1` showed a GI50 [1] of 2.81 µM, a TGI [1] of 11.4 µM and a GI50 [2] of 2.08 µM. For the same compound, the TGI [2] was 7.34 µM, the GI50 [3] was 2.07 µM and the TGI [3] was 18.6 µM. The GI50 [4] was 2.15 µM, the TGI [4] was 5.3 µM and the GI50 [5] was 3.26 µM. The TGI [5] was 22.3 µM, the GI50 [6] was 3.11 µM and the TGI [6] was greater than 100 µM. For the same compound, the GI50 [7] was 1.63 µM, the TGI [7] was 4.84 µM and the GI50 [8] was 14.4 µM. The TGI [8] was greater than 100 µM, the GI50 [60] was 2.89 µM and the TGI [60] was greater than 100 µM. The GI50 [10] was 4.13 µM, the TGI [10] was greater than 100 µM and the GI50 [11] was 2.05 µM. For the same compound, the TGI [11] was 9.69 µM, the GI50 [61] was 2.32 µM and the TGI [61] was 15.8 µM. The GI50 [12] was 2.9 µM, the TGI [12] was 31.7 µM and the GI50 [13] was 3.46 µM. The TGI [13] was 15.1 µM, the GI50 [15] was 3.3 µM and the TGI [15] was greater than 100 µM. It also gave a GI50 [17] of 2.26 µM, a TGI [17] of 6.97 µM and a GI50 [19] of 3.61 µM. The TGI [19] was 92.7 µM, the GI50 [21] was 2.82 µM and the TGI [21] was 8.2 µM. The GI50 [22] was 17.8 µM, the TGI [22] was greater than 100 µM and the GI50 [23] was 1.84 µM. For the same compound, the TGI [23] was 5 µM, the GI50 [25] was 2.21 µM and the TGI [25] was 5.28 µM. The GI50 [26] was 2.84 µM, the TGI [26] was 12.3 µM and the GI50 [62] was 3.68 µM. The TGI [62] was 23.1 µM, the GI50 [27] was 4.47 µM and the TGI [27] was greater than 100 µM. The GI50 [28] was 2.26 µM, the TGI [28] was 5.62 µM and the GI50 [29] was 4.37 µM. It also gave a TGI [29] of 49.1 µM, a GI50 [30] of 4.15 µM and a TGI [30] of 9.98 µM. The GI50 [31] was 14.2 µM, the TGI [31] was 89.8 µM and the GI50 [32] was 1.65 µM. It also gave a TGI [32] of 3.16 µM, a GI50 [33] of 3.67 µM and a TGI [33] of 17.3 µM. It also gave a GI50 [63] greater than 100 µM, a TGI [63] greater than 100 µM and a GI50 [37] of 4.12 µM. For the same compound, the TGI [37] was greater than 100 µM, the GI50 [38] was 3.16 µM and the TGI [38] was 13.2 µM. For the same compound, the GI50 [41] was 5.64 µM, the TGI [41] was 53 µM and the GI50 [64] was 2.67 µM. It also gave a TGI [64] of 10.6 µM, a GI50 [43] of 2.15 µM and a TGI [43] of 29.6 µM. It also gave a GI50 [44] of 4.01 µM, a TGI [44] of 39.5 µM and a GI50 [45] of 1.79 µM. It also gave a TGI [45] of 7.46 µM, a GI50 [46] of 4.84 µM and a TGI [46] of 31.3 µM. For the same compound, the GI50 [49] was 3.49 µM, the TGI [49] was 52.5 µM and the GI50 [50] was 2.79 µM. The TGI [50] was 8.95 µM, the GI50 [65] was 8.01 µM and the TGI [65] was greater than 100 µM. The GI50 [66] was 2.61 µM, the TGI [66] was 6.79 µM and the GI50 [51] was 3.7 µM. It also gave a TGI [51] greater than 100 µM, a GI50 [52] of 3.6 µM and a TGI [52] greater than 100 µM. For the same compound, the GI50 [55] was 5.01 µM, the TGI [55] was 75.4 µM and the GI50 [56] was 3.02 µM. It also gave a TGI [56] of 9.78 µM, a GI50 [57] of 1.97 µM and a TGI [57] of 7.39 µM. It also gave a GI50 [58] of 0.923 µM, a TGI [58] of 12.8 µM and a GI50 [59] of 2.1 µM. For the same compound, the TGI [59] was 12.5 µM.
In the case of `COc1ccc(/C=C\c2cc(OC)c(OC)c(OC)c2)cc1OP(=O)(O)O`, the GI50 [2] is reported as 11.9 µM, the TGI [2] is reported as > 100 µM and 50 µM and > 76.1 µM and the TGI [3] is reported as greater than 100 µM. The TGI [4] was 0.0169 µM and 0.0953 µM, the TGI [5] was > 100 µM and 50 µM and the TGI [8] was greater than 100 µM. The TGI [60] was > 100 µM and 50 µM, the TGI [10] was > 100 µM and 50 µM and the TGI [15] was > 100 µM and 50 µM and > 65 µM. For the same compound, the GI50 [18] was less than 0.0001 µM, the TGI [19] was > 100 µM and 50 µM and the TGI [21] was > 100 µM and 24.5 µM and > 89 µM. The TGI [22] was greater than 100 µM, the TGI [23] was 25.1 µM and 50 µM and > 100 µM and the GI50 [24] was 0.609 µM. The TGI [24] was 0.356 µM and 0.371 µM, the TGI [25] was > 100 µM and 50 µM and the TGI [26] was greater than 100 µM. For the same compound, the TGI [28] was 50 µM and > 100 µM, the TGI [29] was greater than 100 µM and the GI50 [63] was greater than 100 µM. It also gave a TGI [63] greater than 100 µM, a TGI [35] greater than 12.1 µM and a TGI [36] greater than 100 µM. The TGI [42] was greater than 100 µM, the TGI [44] was 50 µM and > 100 µM and the GI50 [45] was 0.929 µM. The TGI [47] was > 100 µM and 50 µM and > 64.3 µM, the TGI [49] was > 100 µM and 50 µM and the TGI [50] was 88.9 µM and 50 µM and > 100 µM. For the same compound, the TGI [65] was > 100 µM and 50 µM, the TGI [51] was > 67.5 µM and 50 µM and > 100 µM and the GI50 [53] was 13.2 µM. For the same compound, the GI50 [54] was 20.7 µM, the TGI [55] was > 100 µM and 50 µM and the TGI [57] was > 100 µM and 50 µM. For the same compound, the GI50 [58] was 0.486 µM and 3.89 µM.
